Test system: Human sebocytes
Assay: Test of sebum secretion-inhibiting effect using human sebocytes (linoleic acid-induced, Bodipy lipid staining)
Assay type: cell-based
Experimental: Human sebocytes were cultured for 24 hours in an environment of 37° C. and 5% CO2 with Sebocyte Complete Culture Media (Celprogen), and then treated with 100 μM linoleic acid and 0.1, 0.5, 1, and 2 ppm Melasolv and cultured for another 48 hours.
Thereafter, the cells were fixed with formaldehyde, and lipids were stained with 2 μM Bodipy. Fluorescence intensity was measured at a specific wavelength (Excitation/Emission: 485/528 nm) using a Fluorescent Plate Reader.

Row | Compound | sebum production, percentage compared to the untreated control group (100%) (100 μM linoleic acid alone (inducer), 48 hours, Bodipy fluorescence) [%] | amount of sebum production (concentration dependence) (0.1, 0.5, 1, and 2 ppm Melasolv together with 100 μM linoleic acid, 48 hours (FIG. 1)) | sebum production seen in fluorescence photograph (FIG. 2) (2 ppm Melasolv, naked-eye observation of Bodipy fluorescence photograph) | inhibition at 2 ppm (Homo sapiens, 2 ppm Melasolv with 100 μM linoleic acid, 48 hours, based on the amount of sebum production induced by linoleic acid, Bodipy fluorescence (FIG. 1)) [%]
1 | CCCCC/C=C\C/C=C\CCCCCCCC(=O)O [linoleic acid, reference compound] | 142 | – | – | –
2 | COc1cc(/C=C/C(=O)Oc2cc(C)ccc2C(C)C)cc(OC)c1OC [Melasolv, (5-methyl-2-propan-2-ylphenyl) (E)-3-(3,4,5-trimethoxyphenyl)prop-2-enoate] | – | decreased in proportion to the concentration | most inhibited | ~60.3

Reference: patent US20260144770A1, “COMPOSITION FOR INHIBITING SEBUM SECRETION CONTAINING A THYMOL ESTER-BASED COMPOUND” (AMOREPACIFIC CORPORATION, priority 2024, published 2026)
